According to ChEMBL document CHEMBL3244199, “6beta-[N,N-Bis(2-chloroethyl)amino]-17-(cyclopropylmethyl)-4,5alpha-epoxy-3,14-dihydroxymorphinan(chlornaltrexamine) a potent opioid receptor alkylating agent with ultralong narcotic antagonist actitivty” (J Med Chem, 1978):
The source made the active and inactive calls. No cut-off for these calls is given here.

What was measured:
[1] = biological target: Opioid receptors; mu/kappa/delta (Homo sapiens) (UniProt P41145+P41143+P35372); details: Brain, 1 uM
Description: Displacement of [3H]naloxone from opioid receptor (unknown origin) in brain homogenate at 1 uM to 10 nM

Mus musculus [2] = assay: Residual inhibition of morphine-induced analgesia in mouse at 2.4 nmol, icv measured after 2 hrs by tail-flick assay; assay type: functional, organism-based
[3] = Toxicity in mouse assessed as animal death at 2.4 nmol, icv; assay type: organism-based; details: in vivo, icv or intrathecal, read-out: Activity
Mus musculus [4] = assay: Toxicity in mouse at 4.8 nmol, icv measured within 1.5 hrs post-drug administration; assay type: organism-based; details: in vivo, icv_or_intrathecal

Chain of Opioid receptors; mu/kappa/delta (Homo sapiens) (P35372 whole entry, looked up): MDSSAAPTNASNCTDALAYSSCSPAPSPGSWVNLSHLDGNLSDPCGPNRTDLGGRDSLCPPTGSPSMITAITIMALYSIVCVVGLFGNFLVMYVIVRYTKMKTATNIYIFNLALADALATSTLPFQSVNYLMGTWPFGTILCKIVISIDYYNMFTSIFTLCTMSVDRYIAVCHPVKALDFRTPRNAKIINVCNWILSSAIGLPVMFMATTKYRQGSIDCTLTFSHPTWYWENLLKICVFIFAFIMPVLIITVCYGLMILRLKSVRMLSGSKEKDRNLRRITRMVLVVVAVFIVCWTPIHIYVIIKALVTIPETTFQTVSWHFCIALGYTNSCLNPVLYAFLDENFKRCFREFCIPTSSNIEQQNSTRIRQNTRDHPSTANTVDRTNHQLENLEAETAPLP
Chain of Opioid receptors; mu/kappa/delta (Homo sapiens) (P41143 whole entry, looked up): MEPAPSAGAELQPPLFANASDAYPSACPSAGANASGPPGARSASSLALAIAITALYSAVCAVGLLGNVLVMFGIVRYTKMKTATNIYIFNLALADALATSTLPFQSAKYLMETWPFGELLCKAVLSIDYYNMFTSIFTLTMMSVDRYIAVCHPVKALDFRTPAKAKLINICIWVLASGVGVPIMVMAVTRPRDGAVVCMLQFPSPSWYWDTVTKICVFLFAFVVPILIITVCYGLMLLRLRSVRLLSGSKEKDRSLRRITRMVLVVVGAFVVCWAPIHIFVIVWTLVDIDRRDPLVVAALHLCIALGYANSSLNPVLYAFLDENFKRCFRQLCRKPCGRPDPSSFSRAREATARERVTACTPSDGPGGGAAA
Chain of Opioid receptors; mu/kappa/delta (Homo sapiens) (P41145 whole entry, looked up): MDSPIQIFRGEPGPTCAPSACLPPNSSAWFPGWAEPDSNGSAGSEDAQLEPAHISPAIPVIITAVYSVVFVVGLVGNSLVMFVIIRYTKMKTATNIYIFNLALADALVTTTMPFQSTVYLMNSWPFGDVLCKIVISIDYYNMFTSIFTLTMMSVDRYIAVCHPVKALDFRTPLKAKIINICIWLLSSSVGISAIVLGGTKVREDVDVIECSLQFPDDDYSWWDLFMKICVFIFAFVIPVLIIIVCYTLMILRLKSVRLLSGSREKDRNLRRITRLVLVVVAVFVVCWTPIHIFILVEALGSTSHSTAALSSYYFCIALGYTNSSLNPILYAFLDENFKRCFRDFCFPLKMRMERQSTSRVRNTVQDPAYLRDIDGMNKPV

CN1CC[C@]23CCCC[C@H]2[C@H]1Cc1ccc(O)cc13
inhibition [1]: Active

O=C1CC[C@@]2(O)[C@H]3Cc4ccc(O)c5c4[C@@]2(CCN3CC2CC2)[C@H]1O5
inhibition (Mus musculus [2]): inactive

Cl.Oc1ccc2c3c1O[C@H]1[C@H](N(CCCl)CCCl)CC[C@@]4(O)[C@@H](C2)N(CC2CC2)CC[C@]314
mortality [3]: 2% | Activity (Mus musculus [4]): 12%
